{
  "source": "patent US20230301890A1",
  "about": "“COMPOSITIONS COMPRISING UROLITHINS” (Amazentis SA, priority 2022, published 2023)",
  "key": {"[1]": {"test_system": "UVB induced erythema", "test": "Clinical trial: UVB induced erythema, Chromameter a*", "type": "in vivo, human", "description": "A sunburn of 1.25 minimal erythemal dose (MED) was evoked on one set of test areas and 1.6 MED on the other set of test areas by irradiation with a sun simulator. On 3 test areas of each set products was applied 24 hours before irradiation, on 3 other test areas of each set products was applied immediately after irradiation. An irradiated but untreated test area served as a control. The effect of the test products was assessed by visual evaluation of erythema and instrumental color measurements by Chromameter before and after irradiation. The study was reviewed by an independent institutional review board (IRB) for ethical approval.\nThe following efficacy assessment(s) will be performed: • Erythema (a*) by Chromameter (See FIG. 10) • Visual erythema evaluation (trained grader)\nThe following instrumental measurement(s) will be performed: • CHROMAMETER CR 400 (Minolta, Device D-Langenhagen, Germany): Skin color can objectively be quantified by reflectance measurements with a tri-stimulus Chromameter. The measuring principle is based on the reflection of a Xenon flash that diffusely lightens the skin on an area of 8 mm in diameter. The vertically reflected light from the skin is then detected by high-sensitive silica photodiodes that provide a color analysis of the detected light. The Chromameter defines the measured color in the L*a*b* color coordinate system. The L*-value defines the brightness. The color is defined by the parameters a* (red-green axis; negative a*-value green, positive a*-value red) and b* (blue-yellow axis, negative b*-value blue, positive b*-value yellow). The a* value correlates well with visual assessments of skin redness (erythema), a* is a measure for erythema. […]"}, "[2]": {"test_system": "3D reconstituted human epidermis (RHE)", "test": "Gene expression in 3D reconstituted human epidermis after daily cream application", "type": "cell-based", "conditions": "UA 1% moisturizing cream daily for 3 days, vs Vehicle", "excerpt": "Finally, we employed a model of 3D reconstituted human epidermis (RHE) applied daily with the UA 1% moisturizing cream for 3 days."}, "[3]": {"test_system": "wrinkles in the periorbital regions", "test": "Aging study 2: skin roughness (wrinkle) by DermaTOP", "type": "in vivo, human", "conditions": "1% UA creams, 2, 4 and 8 weeks, vs untreated side; listed as UA", "excerpt": "Anti-wrinkle efficacy will be assessed in the periorbital regions by investigating the three-dimensional structure of the wrinkles (DermaTOP). Skin hydration, skin elasticity effects and skin barrier function will be investigated by Corneometer, Cutometer and Tewameter measurements. On a subgroup of 12 subjects the ceramide content, including barrier lipids, in the Stratum Corneum will be performed by Raman Spectroscopy. […]\nDERMATOP blue (Eo Tech SA, Marcoussis France): Using phase-shifted and gray-coded measurements of human skin the three-dimensional surface structure of the investigated skin site is captured. […] The fringes that are projected under a defined triangulation angle onto the surface of the measured target with a sinus-like intensity of brightness are detected with a CCD camera. The three-dimensional skin surface profile is calculated from the position of the fringes in combination with the gray values of each pixel. From the captured three-dimensional structure, roughness parameters are calculated. […]"}, "[4]": {"test_system": "Normal Adult Human Epidermal Keratinocytes (NHEK-Ad)", "test": "RNA sequencing gene expression in human primary keratinocytes", "type": "cell-based", "conditions": "for expression of autophagy/mitophagy and mitochondrial function genes / expression of MMP1: vs DMSO/vehicle", "description": "Study was conducted on Normal Adult Human Dermal Fibroblasts (NHDF-Ad) from two pooled donors (Catalog #: CC-2511) and Normal Adult Human Epidermal Keratinocytes (NHEK-Ad) from two pooled donors (Catalog #: 00192627, Lonza). The primary skin cells were amplified in flask and seeded in 12-well cell culture plates, filled with 1 mL of culture medium and then incubated at 37° C. with 5% CO2 and saturated hygrometry. The basic culture medium of human dermal fibroblasts was composed of FBM™ medium (Fibroblast Growth Basal Medium) supplemented with insulin 0.1%, hFGF-B 0.1%, GA-1000 0.1% and FBS 2%. The basic culture medium of human keratinocytes was composed of KBM™ Gold medium (Keratinocytes Basal Medium) supplemented with Hydrocortisone, Transferrin, Epinephrine, Gentamycin, Amphotericin B, BPE, hEGF and Insulin. Primary cells were treated at confluency (approximatively 250000 cells per well) with 0.1% DMSO (control), 2.5 μM and 10 μM of Urolithin A for 24 h, and harvested for RNA sequencing and expression profiling using the NGS platform."}},
  "note": "“Also recorded” adds a separate entry of the source.",
  "data": [
    {"smiles": "O=c1oc2cc(O)ccc2c2ccc(O)cc12", "note": "[Urolithin A]", "values": [
      {"measurement": "skin redness, erythema (a*) by Chromameter vs untreated area", "setting": "[1]; skin cream with 1% Urolithin A, 1.6 MED UVB, 24 hours after irradiation", "result": "reduction; also recorded: significantly less skin redness"},
      {"measurement": "reduction of skin redness/erythema", "setting": "[1]; skin cream with 1% Urolithin A, 1.6 MED UVB, vs untreated area", "result": "approximately 14.3%"},
      {"measurement": "skin redness/erythema", "setting": "[1]; skin cream with Urolithin A at 0.5%", "result": "did not show any significant effect"},
      {"measurement": "MMP1 and MMP3 gene expression", "setting": "[2]", "result": "No change"},
      {"measurement": "mitophagy and autophagy genes", "setting": "[2]", "result": "early activation"},
      {"measurement": "wrinkles (finer and rougher skin structures, Ra and Rz)", "setting": "[3]", "result": "significant anti-wrinkle effects; also recorded: significant impact on reducing wrinkles"},
      {"measurement": "expression of genes encoding collagen degradation enzymes (MMPs, ADAMs)", "setting": "[4]; 2.5 uM or 10 uM, 24 h, vs DMSO", "result": "reduces expression"},
      {"measurement": "expression of genes encoding proinflammatory cytokines (IL1A, IL1B)", "setting": "[4]; 2.5 uM or 10 uM, 24 h, vs DMSO", "result": "reduces expression"},
      {"measurement": "expression of autophagy/mitophagy and mitochondrial function genes", "setting": "[4]; 2.5 uM or 10 uM, 24 h", "result": "increases the expression"},
      {"measurement": "expression of autophagy/mitophagy and mitochondrial function genes", "setting": "[4]; 2.5 uM or 10 uM, 24 h, listed as UA", "result": "upregulated"},
      {"measurement": "expression of mitophagy marker PINK1", "setting": "[4]; 2.5 uM or 10 uM, vs DMSO", "result": "increased"},
      {"measurement": "expression of MMP1", "setting": "[4]; 24 h", "result": "decreases"},
      {"measurement": "expression of MMP1", "setting": "[4]; 24 h, listed as UA", "result": "drastic downregulation"},
      {"measurement": "expression of MMP3", "setting": "[4]; 24 h, vs vehicle", "result": "drastic downregulation"}
    ]}
  ]
}
